Measurements reported in patent US9763445B2, “Safened herbicidal compositions comprising a pyridine carboxylic acid herbicide” (Dow AgroSciences, LLC, priority 2014, dated 2017).

Key:
cornflower (CENCY) [1] = assay: Postemergence greenhouse trial, % visual injury on cornflower; assay type: in vivo, Centaurea cyanus or Cyanus segetum
winter wheat (TRZAW) = assay: Postemergence greenhouse trial, % visual injury on winter wheat; assay type: in vivo, Triticum aestivum
Method: (§1) Seeds of the desired test plant species were planted in Sun Gro MetroMix® 306 planting mixture, which typically has a pH of 6.0 to 6.8 and an organic matter content of about 30 percent, in plastic pots with a surface area of 103.2 square centimeters (cm^2). When required to ensure good germination and healthy plants, a fungicide treatment and/or other chemical or physical treatment was applied. The plants were grown for 7-36 days (d) in a greenhouse with an approximate 14-hour (h) photoperiod which was maintained at about 23° C. during the day and 22° C. during the night. Nutrients and water were added on a regular basis and supplemental lighting was provided with overhead metal halide 1000-Watt lamps as necessary. The plants were employed for testing when they reached the second or third true leaf stage.
(§2) Weighed amounts of technical material were dissolved in a volume of 97:3 volume per volume (v/v) acetone/dimethyl sulfoxide (DMSO) to stock solutions. […] The concentrated stock solutions were diluted with an aqueous mixture of 1.5% v/v of Agri-dex crop oil concentrate to provide the appropriate application rates. Compound requirements are based upon a 12 milliliter (mL) application volume at a rate of 187 liters per hectare (L/ha). Stocks solutions of the safeners were prepared following the same procedure. Spray solutions of the safeners and experimental compound mixtures were prepared by adding the stock solutions to the appropriate amount of dilution solution to form a 12 mL spray solution in two-way combinations. Formulated compounds were applied to the plant material with an overhead Mandel track sprayer equipped with 8002E nozzles calibrated to deliver 187 L/ha over an application area of 0.503 square meters (m^2) at a spray height of 18 inches (43 centimeters (cm)) above average plant canopy. Control plants were sprayed in the same manner with the solvent blank. All herbicide application (component a) rates are in g ae/ha and all safener (component b) rates are in g ai/ha.
(§3) The treated plants and control plants were placed in a greenhouse as described above and watered by sub-irrigation to prevent wash-off of the test compounds. After 20-22 d, the condition of the test plants as compared with that of the control plants was determined visually and scored on a scale of 0 to 100 percent where 0 corresponds to no injury and 100 corresponds to complete kill. The condition of the test plants was compared with that of the control plants as determined visually and scored on a scale of 0 to 100 percent, where 0 corresponds to no injury and 100 corresponds to complete kill. Colby's equation was used to determine the herbicidal effects expected from the mixtures.
(§4) The safener cloquintocet-mexyl was combined with compound 1, compound 2, compound 3, compound 7, compound 8, compound 9, compound 10, compound 11, compound 12, compound 13, compound 14, compound 15, compound 16, compound 17, compound 18, compound 19, and compound 20, and applied to spring wheat (TRZAS), winter wheat (TRZAW), and spring barley (HORVS) and the phytotoxicity of the herbicidal compositions was measured. […]

cornflower (CENCY) [2] = assay: Postemergence greenhouse trial, % visual injury on cornflower; assay type: in vivo, Centaurea cyanus or Cyanus segetum; settings: alone
Method: as §1, §2, §3, §4

prickly lettuce (LACSE) = assay: Postemergence greenhouse trial, % visual injury on prickly lettuce; assay type: in vivo, Lactuca serriola
Method: as §1, §2
as §3, with “mixtures. […]” for “mixtures.”

shepherd's purse (CAPBP) = assay: Postemergence greenhouse trial, % visual injury on shepherd's purse; assay type: in vivo, Capsella bursa-pastoris; settings: alone
Method: as §1, §2, §3, §4

wild buckwheat (POLCO) = assay: Postemergence greenhouse trial, % visual injury on wild buckwheat; assay type: in vivo, Polygonum convolvulus; settings: for % visual injury, Ob: alone, 35 g/ha; for % visual injury, observed (Ob): POLCO
How it was run: (§5)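 Visual injury, 0 (none) to 100 (complete kill), rated 20-22 d after overhead track-sprayer application at 187 L/ha; Colby's equation gave expected mixture responses. Herbicide (g ae/ha) and cloquintocet-mexyl safener (g ai/ha) diluted in aqueous 1.5% v/v Agri-dex, applied to weeds at 2–3 true leaves.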

chickweed (STEME) = assay: Postemergence greenhouse trial, % visual injury on chickweed; assay type: in vivo, Stellaria media; settings: alone, 35 g/ha
How it was run: as §5

cleavers (GALAP) = assay: Postemergence greenhouse trial, % visual injury on cleavers; assay type: in vivo, Galium aparine
Method: as §1, §2, §3, §4

Nc1c(F)c(-c2ccc3cc[nH]c3c2F)nc(C(=O)O)c1Cl [compound 1]
40%: % visual injury, Ob (winter wheat (TRZAW); alone, 35 g/ha)
100%: % visual injury, Ob (cornflower (CENCY) [1]; alone, 17.5 g/ha) | % visual injury, Ob (cornflower (CENCY) [1]; alone, 70 g/ha) | % visual injury, Ob (cornflower (CENCY) [2]; 4.375 g/ha) | % visual injury, Ob (cornflower (CENCY) [2]; 8.75 g/ha) | % visual injury, Ob (cornflower (CENCY) [2]; 35 g/ha) | % visual injury, Ob (prickly lettuce (LACSE); alone, 17.5 g/ha) | % visual injury, Ob (prickly lettuce (LACSE); alone, 35 g/ha) | % visual injury, Ob (prickly lettuce (LACSE); alone, 70 g/ha) | % visual injury, Ob (shepherd's purse (CAPBP); 8.75 g/ha) | % visual injury, Ob (shepherd's purse (CAPBP); 17.5 g/ha) | % visual injury, Ob (shepherd's purse (CAPBP); 35 g/ha) | % visual injury, Ob (shepherd's purse (CAPBP); 70 g/ha) | % visual injury, Ob (chickweed (STEME))
13%: % visual injury, observed (Ob) (winter wheat (TRZAW); TRZAW, compound 1 alone 20 g/ha)
15%: % visual injury, observed (Ob) (winter wheat (TRZAW); TRZAW, compound 1 alone 40 g/ha)
70%: % visual injury, Ob (prickly lettuce (LACSE); alone, 4.375 g/ha) | % visual injury, Ob (shepherd's purse (CAPBP); 4.375 g/ha)
50%: % visual injury, Ob (winter wheat (TRZAW); alone, 70 g/ha)
99%: % visual injury, Ob (wild buckwheat (POLCO))
93%: % visual injury, Ob (prickly lettuce (LACSE); alone, 8.75 g/ha)

CCCCCC(C)OC(=O)COc1ccc(Cl)c2cccnc12 (stereo not drawn) [CQC-m, cloquintocet-mexyl, reference compound]
0%: % visual injury, Ob (cornflower (CENCY) [1]; CENCY, compound 0, CQC-m 4.375 g/ha) | % visual injury, Ob (cornflower (CENCY) [1]; CENCY, compound 0, CQC-m 8.75 g/ha) | % visual injury, Ob (cornflower (CENCY) [1]; CENCY, compound 0, CQC-m 17.5 g/ha) | % visual injury, Ob (cornflower (CENCY) [1]; CENCY, compound 0, CQC-m 35 g/ha) | % visual injury, Ob (cornflower (CENCY) [1]; CENCY, compound 0, CQC-m 70 g/ha) | % visual injury, Ob (cornflower (CENCY) [1]; CENCY, compound 0 g/ha, CQC-m 4.375 g/ha) | % visual injury, Ob (cornflower (CENCY) [1]; CENCY, compound 0 g/ha, CQC-m 8.75 g/ha) | % visual injury, Ob (cornflower (CENCY) [1]; CENCY, compound 0 g/ha, CQC-m 17.5 g/ha) | % visual injury, Ob (cornflower (CENCY) [1]; CENCY, compound 0 g/ha, CQC-m 35 g/ha) | % visual injury, Ob (cornflower (CENCY) [1]; CENCY, compound 0 g/ha, CQC-m 70 g/ha) | % visual injury, Ob (cornflower (CENCY) [1]; alone, 17.5 g/ha) | % visual injury, Ob (cornflower (CENCY) [1]; alone, 70 g/ha) | % visual injury, Ob (winter wheat (TRZAW); TRZAW, compound 0 g/ha, CQC-m 35 g/ha) | % visual injury, Ob (winter wheat (TRZAW); TRZAW, compound 0 g/ha, CQC-m 70 g/ha) | % visual injury, observed (Ob) (winter wheat (TRZAW); TRZAW, safener alone 2.5 g/ha) | % visual injury, observed (Ob) (winter wheat (TRZAW); TRZAW, safener alone 5 g/ha) | % visual injury, observed (Ob) (winter wheat (TRZAW); TRZAW, safener alone 10 g/ha) | % visual injury, observed (Ob) (winter wheat (TRZAW); TRZAW, safener alone 20 g/ha) | % visual injury, Ob (winter wheat (TRZAW); alone, 35 g/ha) | % visual injury, Ob (winter wheat (TRZAW); alone, 70 g/ha) | % visual injury, Ob (cornflower (CENCY) [2]; 4.375 g/ha) | % visual injury, Ob (cornflower (CENCY) [2]; 8.75 g/ha) | % visual injury, Ob (cornflower (CENCY) [2]; 35 g/ha) | % visual injury, Ob (prickly lettuce (LACSE); LACSE, compound 0, CQC-m 4.375 g/ha) | % visual injury, Ob (prickly lettuce (LACSE); LACSE, compound 0, CQC-m 8.75 g/ha) | % visual injury, Ob (prickly lettuce (LACSE); LACSE, compound 0, CQC-m 17.5 g/ha) | % visual injury, Ob (prickly lettuce (LACSE); LACSE, compound 0, CQC-m 35 g/ha) | % visual injury, Ob (prickly lettuce (LACSE); LACSE, compound 0, CQC-m 70 g/ha) | % visual injury, Ob (prickly lettuce (LACSE); LACSE, compound 0 g/ha, CQC-m 4.375 g/ha) | % visual injury, Ob (prickly lettuce (LACSE); LACSE, compound 0 g/ha, CQC-m 8.75 g/ha) | % visual injury, Ob (prickly lettuce (LACSE); LACSE, compound 0 g/ha, CQC-m 17.5 g/ha) | % visual injury, Ob (prickly lettuce (LACSE); LACSE, compound 0 g/ha, CQC-m 35 g/ha) | % visual injury, Ob (prickly lettuce (LACSE); LACSE, compound 0 g/ha, CQC-m 70 g/ha) | % visual injury, Ob (prickly lettuce (LACSE); alone, 4.375 g/ha) | % visual injury, Ob (prickly lettuce (LACSE); alone, 8.75 g/ha) | % visual injury, Ob (prickly lettuce (LACSE); alone, 17.5 g/ha) | % visual injury, Ob (prickly lettuce (LACSE); alone, 35 g/ha) | % visual injury, Ob (prickly lettuce (LACSE); alone, 70 g/ha) | % visual injury, Ob (cleavers (GALAP); 4.375 g/ha, applied alone) | % visual injury, Ob (cleavers (GALAP); 8.75 g/ha, applied alone) | % visual injury, Ob (cleavers (GALAP); 17.5 g/ha, applied alone) | % visual injury, Ob (cleavers (GALAP); 35 g/ha, applied alone) | % visual injury, Ob (cleavers (GALAP); 70 g/ha, applied alone) | % visual injury, Ob (cleavers (GALAP); compound 0 g/ha, CQC-m 4.375 g/ha) | % visual injury, Ob (cleavers (GALAP); compound 0 g/ha, CQC-m 8.75 g/ha) | % visual injury, Ob (cleavers (GALAP); compound 0 g/ha, CQC-m 17.5 g/ha) | % visual injury, Ob (cleavers (GALAP); compound 0 g/ha, CQC-m 35 g/ha) | % visual injury, Ob (cleavers (GALAP); compound 0 g/ha, CQC-m 70 g/ha) | % visual injury, Ob (shepherd's purse (CAPBP); 4.375 g/ha) | % visual injury, Ob (shepherd's purse (CAPBP); 8.75 g/ha) | % visual injury, Ob (shepherd's purse (CAPBP); 17.5 g/ha) | % visual injury, Ob (shepherd's purse (CAPBP); 35 g/ha) | % visual injury, Ob (shepherd's purse (CAPBP); 70 g/ha) | % visual injury, observed (Ob) (wild buckwheat (POLCO); compound 8 0 + CQC-m 4.375 g/ha) | % visual injury, observed (Ob) (wild buckwheat (POLCO); compound 8 0 + CQC-m 8.75 g/ha) | % visual injury, observed (Ob) (wild buckwheat (POLCO); compound 8 0 + CQC-m 17.5 g/ha) | % visual injury, observed (Ob) (wild buckwheat (POLCO); compound 8 0 + CQC-m 35 g/ha) | % visual injury, observed (Ob) (wild buckwheat (POLCO); compound 8 0 + CQC-m 70 g/ha) | % visual injury, Ob (wild buckwheat (POLCO)) | % visual injury, Ob (chickweed (STEME))
